Legend:
HeLa = assay: Cytotoxicity against human HeLa cells; type: functional, cell-based
A549 [1] = assay: Induction of apoptosis in human A549 cells assessed as early apoptotic cells at 2 uM after 24 hrs by Annexin V-FITC/propidium iodide staining-based flow cytometric analysis (reference value: 0.52%); type: functional
A549 [2] = assay: Induction of apoptosis in human A549 cells assessed as caspase9 expression at 7.4 uM after 2 hrs by ELISA (reference value: 0.1726 ng/ml); type: functional
A549 [3] = assay: Induction of apoptosis in human A549 cells 24 hrs by propidium iodide staining-based flow cytometric analysis (reference value: 0.92%); type: functional
A549 [4] = assay: Cell cycle arrest in human A549 cells assessed as accumulation of cells at pre-G1 phase at 2 uM after […] by propidium iodide staining-based flow cytometric analysis (reference value: 0.92%); type: functional
A549 [5] = assay: Cell cycle arrest in human A549 cells assessed as accumulation of cells at S phase at 2 uM after 24 hrs by propidium iodide staining-based flow cytometric analysis (reference value: 25.26%); type: functional
A549 [6] = assay: Cell cycle arrest in human A549 cells assessed as accumulation of cells at G0/G1 phase at 2 uM after 24 hrs by propidium iodide staining-based flow cytometric analysis (reference value: 67.62%); type: functional
A549 [7] = assay: Induction of apoptosis in human A549 cells assessed as caspase3 expression at 7.4 uM after 2 hrs by ELISA (reference value: 53.45 ng/ml); type: functional
A549 [8] = assay: Induction of apoptosis in human A549 cells assessed as late apoptotic cells at 2 uM after 24 hrs by Annexin V-FITC/propidium iodide staining-based flow cytometric analysis (reference value: 0.33%); type: functional
A549 [9] = assay: Cell cycle arrest in human A549 cells assessed as accumulation of cells at G2/M phase at 2 uM after 24 hrs by propidium iodide staining-based flow cytometric analysis (reference value: 6.2%); type: functional
A549 [10] = assay: Induction of apoptosis in human A549 cells assessed as necrotic cells at 2 uM after 24 hrs by Annexin V-FITC/propidium iodide staining-based flow cytometric analysis (reference value: 0.07%); type: functional
A549 [11] = assay: Induction of apoptosis in human A549 cells assessed as viable cells at 2 uM after 24 hrs by Annexin V-FITC/propidium iodide staining-based flow cytometric analysis (reference value: 97.5%); type: functional; conditions: A549, 24 h, read-out: Activity
HCT-116 = assay: cells; conditions: Homo sapiens, HCT-116, 24 h
Description: Cytotoxicity against human HCT116 cells after 24 hrs by MTT assay

MCF7 = assay: Cytotoxicity against human MCF7 cells after 24 hrs by MTT assay; type: functional, cell-based; conditions: MCF7, 24 h
PC-3 = assay: cells; conditions: Homo sapiens, PC-3, 24 h
Description: Cytotoxicity against human PC3 cells after 24 hrs by MTT assay

BJ = assay: Cytotoxicity against human BJ cells; type: cell-based
[12] = Cytotoxicity against human WPE1-NA22 cells; type: cell-based
MRC5 = assay: Cytotoxicity against human MRC5 cells; type: cell-based

Work on `CNC(=O)c1cc(Oc2ccc(NC(=O)Nc3ccc(Cl)c(C(F)(F)F)c3)cc2)ccn1` [SORAFENIB] yielded an IC50 (HeLa) of 0.64 µM.
Work on `O=c1[nH]cc(F)c(=O)[nH]1` [FLUOROURACIL] yielded an Activity (A549 [1]) of 6.37%, an Activity (A549 [2]) of 16.84 ng/mL and an Activity (A549 [3]) of 15.52%. For the same compound, the Activity (A549 [4]) was 15.52%, the Activity (A549 [5]) was 16.08% and the Activity (A549 [6]) was 47.36%. It also gave an Activity (A549 [7]) of 582.1 ng/mL, an Activity (A549 [8]) of 6.59% and an Activity (A549 [9]) of 21.04%. It also gave an Activity (A549 [10]) of 2.52% and a viability at 2 µM (A549 [11]) of 82.7%.
`CCOC(=O)C1=C(CSc2nc3cc(C)ccc3[nH]2)N(C)C(=O)NC1c1ccccc1` (stereo unspecified) showed an IC50 (HCT-116) of 9.5 µM, an IC50 (MCF7) of 19.4 µM and an IC50 (PC-3) of 22.3 µM.
Compound `CCOC(=O)C1=C(CSc2nnc(-c3ccc(C)cc3)o2)N(C)C(=O)NC1c1ccccc1` (stereo unspecified) has an IC50 (HCT-116) of 36 µM, an IC50 (MCF7) of 25.3 µM and an IC50 (PC-3) of 61.8 µM.
`COc1cccc2c1C(=O)c1c(O)c3c(c(O)c1C2=O)C[C@@](O)(C(=O)CO)C[C@@H]3O[C@H]1C[C@H](N)[C@H](O)[C@H](C)O1` [DOXORUBICIN] showed an IC50 (BJ) of 17.6 µM, an IC50 [12] of 18.2 µM and an IC50 (MRC5) of 14.8 µM.

From ChEMBL document CHEMBL4270553, “Synthesis and anticancer activity of new dihydropyrimidinone derivatives” (Eur J Med Chem, 2018)
